Results from patent publication US10570179B2, “Substituted urea depsipeptide analogs as activators of the CLPP endopeptidase” (priority 2016, dated 2020).
Converted amounts (≈) assume the structure as drawn. Like-named read-outs stand apart in the source and are kept apart here. Numbered stars: 1 amine (or outer) side, 2 acyl side, 3 side chain; on linkers, the order of the positions; unused ones are H or OH. Bridge positions count the residues as written; N and C are the ends. Square brackets hold non-standard residues; d marks the D form. Peptide text beside a SMILES is read from it. * marks the point of attachment. Piperazine(2S-CO,4-Me) = CN1CCN[C@H](C(=O)O)C1; Phe(3-Me) = Cc1cccc(C[C@H](N)C(=O)O)c1; X4 = O=C1CN([*:1])[C@H](C(=O)[*:2])CN1; Pro(4R-Me) = C[C@H]1CN[C@H](C(=O)O)C1; Hyp = O=C(O)[C@@H]1C[C@@H](O)CN1; NH(3-Cl-phenyl) = Clc1cccc(N*)c1; NH(4-Cl-phenyl) = Clc1ccc(N*)cc1; NH(4-Et-phenyl) = CCc1ccc(N*)cc1; aThr = C[C@H](O)[C@H](N)C(=O)O; Pip = O=C(O)[C@@H]1CCCCN1; CO = O=C([*:1])[*:2]

Key:
S. aureus ClpP (Sa-ClpP) = molecular target: T1, S. aureus ClpP (Sa-ClpP) (Staphylococcus aureus, UniProt Q2G036); test: Casein-BODIPY digestion assay (ClpP activation); type: biochemical
T1 construct: made in house; host or cells: E. coli BL21 (DE3)

S. aureus ΔClpP = test: Minimal inhibitory concentration, microbroth dilution; type: cell-based, Staphylococcus aureus; settings: MIC; ClpP inactivated
Method in brief: (§1)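 Following CLSI M7-A7 microbroth dilution, twofold serial dilutions of compound (top final concentration 200 μM) were combined with an equal volume of broth inoculum at about 10^5 cfu/mL. Plates were incubated aerobically at 37 °C overnight, and the MIC was the lowest concentration preventing visible growth.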

E. faecails = test: as above; type: cell-based; settings: Enterococcus faecalis
Method in brief: as §1

MRSA NRS70 = test: as above; type: cell-based; settings: Staphylococcus aureus
Method in brief: as §1

S. aureus ATCC 29213 = test: as above; type: cell-based; settings: Staphylococcus aureus
Method in brief: as §1

S. aureus USA 300 = test: as above; type: cell-based; settings: Staphylococcus aureus
Method in brief: as §1

[1] = read-out: Minimal Inhibitory Concentrations (μM) E. faecails, MIC
[2] = read-out: Minimal Inhibitory Concentrations (μM) MRSA NRS70, MIC
[3] = ATCC29213, read-out: Minimal Inhibitory Concentrations (μM) S. aureus ATCC 29213, MIC
[4] = USA300, read-out: Minimal Inhibitory Concentrations (μM) S. aureus USA 300, MIC
[5] = MIC, read-out: Minimal Inhibitory Concentrations (μM) E. faecails
[6] = MIC, read-out: Minimal Inhibitory Concentrations (μM) MRSA NRS70
[7] = ATCC29213, MIC, read-out: Minimal Inhibitory Concentrations (μM) S. aureus ATCC 29213
[8] = USA300, MIC, read-out: Minimal Inhibitory Concentrations (μM) S. aureus USA 300

T1 sequence (Q2G036 whole entry): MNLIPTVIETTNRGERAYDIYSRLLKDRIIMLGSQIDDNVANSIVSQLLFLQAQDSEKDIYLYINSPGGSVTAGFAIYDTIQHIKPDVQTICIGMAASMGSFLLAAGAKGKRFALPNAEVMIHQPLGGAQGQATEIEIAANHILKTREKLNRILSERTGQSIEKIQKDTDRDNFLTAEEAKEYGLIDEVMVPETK

Structure (SMILES) | EC50 (S. aureus ClpP (Sa-ClpP)) | Minimal Inhibitory Concentrations (μM) S. aureus ΔClpP (S. aureus ΔClpP) | MIC (E. faecails; [1]) | MIC (MRSA NRS70; [2]) | MIC (S. aureus ATCC 29213; [3]) | MIC (S. aureus USA 300; [4]) | MIC (E. faecails; [5]) | MIC (MRSA NRS70; [6]) | MIC (S. aureus ATCC 29213; [7]) | MIC (S. aureus USA 300; [8])
Cc1cccc(C[C@H](NC(=O)Nc2cccc(Cl)c2)C(=O)N[C@@H]2C(=O)N3CCC[C@H]3C(=O)N3CCCC[C@H]3C(=O)N[C@@H](C)C(=O)N3C[C@H](C)C[C@H]3C(=O)O[C@H]2C)c1 [Compound 64, (S)-2-(3-(3-CHLOROPHENYL)UREIDO)-3-(M-TOLYL)-N-((2R,6S,8AS,14AS,20S,21S,23AS)-2,6,21-TRIMETHYL-5,8,14,19,23-PENTAOXOOCTADECAHYDRO-1H,5H,14H,19H-PYRIDO[2,1-I]DIPYRROLO[2,1-C:2′,1′-L][1]OXA[4,7,10,13]TETRAAZACYCLOHEXADECIN-20-YL)PROPANAMIDE] ({NH(3-Cl-phenyl)-CO}-[Phe(3-Me)][aThr]P[Pip]A[Pro(4R-Me)]; ester 2-C) | 430 ± 200 nM | >20 µM | 10 µM (≈ 8.06 µg/mL) | 0.625 µM (≈ 0.504 µg/mL) | 0.625 µM (≈ 0.504 µg/mL) | 1.25 µM (≈ 1.01 µg/mL) | – | – | – | –
Cc1cccc(C[C@H](NC(=O)Nc2cccc(Cl)c2)C(=O)N[C@@H]2C(=O)N3C[C@H](O)C[C@H]3C(=O)N3CCCC[C@H]3C(=O)N[C@@H](C)C(=O)N3C[C@H](C)C[C@H]3C(=O)O[C@H]2C)c1 [Compound 62, (S)-2-(3-(3-CHLOROPHENYL)UREIDO)-N-((2R,6S,8AS,14AS,16R,20S,21S,23AS)-16-HYDROXY-2,6,21-TRIMETHYL-5,8,14,19,23-PENTAOXOOCTADECAHYDRO-1H,5H,14H,19H-PYRIDO[2,1-I]DIPYRROLO[2,1-C:2′,1′-L][1]OXA[4,7,10,13]TETRAAZACYCLOHEXADECIN-20-YL)-3-(M-TOLYL)PROPANAMIDE] ({NH(3-Cl-phenyl)-CO}-[Phe(3-Me)][aThr][Hyp][Pip]A[Pro(4R-Me)]; ester 2-C) | 420 ± 100 nM | >20 µM | 2.5 µM (≈ 2.06 µg/mL) | 0.625 µM (≈ 0.514 µg/mL) | 1.25 µM (≈ 1.03 µg/mL) | 0.625 µM (≈ 0.514 µg/mL) | – | – | – | –
Cc1cccc(C[C@H](NC(=O)Nc2cccc(Cl)c2)C(=O)N[C@@H]2C(=O)N3CCC[C@H]3C(=O)N3CC(=O)NC[C@H]3C(=O)N[C@@H](C)C(=O)N3C[C@H](C)C[C@H]3C(=O)O[C@H]2C)c1 [Compound 76, (S)-2-(3-(3-CHLOROPHENYL)UREIDO)-3-(M-TOLYL)-N-((6AS,12S,13S,15AS,17R,21S,23AS)-13,17,21-TRIMETHYL-3,6,11,15,20,23-HEXAOXOOCTADECAHYDRO-2H,6H,11H,15H-PYRAZINO[2,1-I]DIPYRROLO[2,1-C:2′,1′-L][1]OXA[4,7,10,13]TETRAAZACYCLOHEXADECIN-12-YL)PROPANAMIDE] ({NH(3-Cl-phenyl)-CO}-[Phe(3-Me)][aThr]P[X4]A[Pro(4R-Me)]; ester 2-C) | 5020 nM | >20 µM | > 20 µM | > 20 µM | > 20 µM | > 20 µM | – | – | – | –
Cc1cccc(C[C@H](NC(=O)Nc2ccc(Cl)cc2)C(=O)N[C@@H]2C(=O)N3C[C@H](O)C[C@H]3C(=O)N3CCN(C)C[C@H]3C(=O)N[C@@H](C)C(=O)N3C[C@H](C)C[C@H]3C(=O)O[C@H]2C)c1 [Compound 68, (S)-2-(3-(4-CHLOROPHENYL)UREIDO)-N-((6AS,8R,12S,13S,15AS,17R,21S,23AS)-8-HYDROXY-2,13,17,21-TETRAMETHYL-6,11,15,20,23-PENTAOXOOCTADECAHYDRO-2H,6H,11H,15H-PYRAZINO[2,1-I]DIPYRROLO[2,1-C:2′,1′-L][1]OXA[4,7,10,13]TETRAAZACYCLOHEXADECIN-12-YL)-3-(M-TOLYL)PROPANAMIDE] ({NH(4-Cl-phenyl)-CO}-[Phe(3-Me)][aThr][Hyp][Piperazine(2S-CO,4-Me)]A[Pro(4R-Me)]; ester 2-C) | 290 ± 100 nM | >20 µM | 0.625 µM (≈ 0.523 µg/mL) | 2.5 µM (≈ 2.09 µg/mL) | 1.25 µM (≈ 1.05 µg/mL) | 0.625 µM (≈ 0.523 µg/mL) | – | – | – | –
Cc1cccc(C[C@H](NC(=O)Nc2ccc(Cl)cc2)C(=O)N[C@H]2COC(=O)[C@@H]3C[C@H](C)CN3C(=O)[C@H](C)NC(=O)[C@@H]3CCCCN3C(=O)[C@@H]3CCCN3C2=O)c1 [Compound 53, (S)-2-(3-(4-CHLOROPHENYL)UREIDO)-N-((2S,6S,8AS,14AS,20S,23AS)-2,6-DIMETHYL-5,8,14,19,23-PENTAOXOOCTADECAHYDRO-1H,5H,14H,19H-PYRIDO[2,1-I]DIPYRROLO[2,1-C:2′,1′-L][1]OXA[4,7,10,13]TETRAAZACYCLOHEXADECIN-20-YL)-3-(M-TOLYL)PROPANAMIDE] | 670 ± 300 nM | >20 µM | 5 µM (≈ 3.96 µg/mL) | 1.25 µM (≈ 0.99 µg/mL) | 1.25 µM (≈ 0.99 µg/mL) | 2.5 µM (≈ 1.98 µg/mL) | – | – | – | –
Cc1cccc(C[C@H](NC(=O)Nc2ccc(Cl)cc2)C(=O)N[C@H]2COC(=O)[C@@H]3C[C@@H](C)CN3C(=O)[C@H](C)NC(=O)[C@@H]3CCCCN3C(=O)[C@@H]3CCCN3C2=O)c1 [Compound 71, (S)-2-(3-(4-CHLOROPHENYL)UREIDO)-N-((2R,6S,8AS,14AS,20S,23AS)-2,6-DIMETHYL-5,8,14,19,23-PENTAOXOOCTADECAHYDRO-1H,5H,14H,19H-PYRIDO[2,1-I]DIPYRROLO[2,1-C:2′,1′-L][1]OXA[4,7,10,13]TETRAAZACYCLOHEXADECIN-20-YL)-3-(M-TOLYL)PROPANAMIDE] | 250 ± 100 nM | >20 µM | 0.313 µM (≈ 0.248 µg/mL) | 0.313 µM (≈ 0.248 µg/mL) | 0.625 µM (≈ 0.495 µg/mL) | 0.625 µM (≈ 0.495 µg/mL) | – | – | – | –
CCc1ccc(NC(=O)N[C@@H](Cc2cccc(C)c2)C(=O)N[C@@H]2C(=O)N3C[C@H](O)C[C@H]3C(=O)N3CCCC[C@H]3C(=O)N[C@@H](C)C(=O)N3CCC[C@H]3C(=O)O[C@H]2C)cc1 [Compound 58, (S)-2-(3-(4-ETHYLPHENYL)UREIDO)-N-((6S,8AS,14AS,16R,20S,21S,23AS)-16-HYDROXY-6,21-DIMETHYL-5,8,14,19,23-PENTAOXOOCTADECAHYDRO-1H,5H,14H,19H-PYRIDO[2,1-I]DIPYRROLO[2,1-C:2′,1′-L][1]OXA[4,7,10,13]TETRAAZACYCLOHEXADECIN-20-YL)-3-(M-TOLYL)PROPANAMIDE] ({NH(4-Et-phenyl)-CO}-[Phe(3-Me)][aThr][Hyp][Pip]AP; ester 2-C) | 270 ± 100 nM | >20 µM | – | – | – | – | 2.5 µM (≈ 2 µg/mL) | 0.625 µM (≈ 0.501 µg/mL) | 2.5 µM (≈ 2 µg/mL) | 0.625 µM (≈ 0.501 µg/mL)
CCc1ccc(NC(=O)N[C@@H](Cc2cccc(C)c2)C(=O)N[C@H]2COC(=O)[C@@H]3C[C@@H](C)CN3C(=O)[C@H](C)NC(=O)[C@@H]3CCCCN3C(=O)[C@@H]3CCCN3C2=O)cc1 [Compound 70, (S)—N-((2R,6S,8AS,14AS,20S,23AS)-2,6-DIMETHYL-5,8,14,19,23-PENTAOXOOCTADECAHYDRO-1H,5H,14H,19H-PYRIDO[2,1-I]DIPYRROLO[2,1-C:2′,1′-L][1]OXA[4,7,10,13]TETRAAZACYCLOHEXADECIN-20-YL)-2-(3-(4-ETHYLPHENYL)UREIDO)-3-(M-TOLYL)PROPANAMIDE] | 290 ± 100 nM | >20 µM | – | – | – | – | 0.156 µM (≈ 0.123 µg/mL) | 0.313 µM (≈ 0.246 µg/mL) | 0.625 µM (≈ 0.491 µg/mL) | 0.313 µM (≈ 0.246 µg/mL)
Cc1cccc(C[C@H](NC(=O)Nc2cccc(Cl)c2)C(=O)N[C@H]2COC(=O)[C@@H]3C[C@H](C)CN3C(=O)[C@H](C)NC(=O)[C@@H]3CCCCN3C(=O)[C@@H]3CCCN3C2=O)c1 [Compound 54, (S)-2-(3-(3-CHLOROPHENYL)UREIDO)-N-((2S,6S,8AS,14AS,20S,23AS)-2,6-DIMETHYL-5,8,14,19,23-PENTAOXOOCTADECAHYDRO-1H,5H,14H,19H-PYRIDO[2,1-I]DIPYRROLO[2,1-C:2′,1′-L][1]OXA[4,7,10,13]TETRAAZACYCLOHEXADECIN-20-YL)-3-(M-TOLYL)PROPANAMIDE] | 1540 ± 1400 nM | >20 µM | 10 µM (≈ 7.92 µg/mL) | 5 µM (≈ 3.96 µg/mL) | > 20 µM | > 20 µM | – | – | – | –
Cc1cccc(C[C@H](NC(=O)Nc2cccc(Cl)c2)C(=O)N[C@@H]2C(=O)N3C[C@H](O)C[C@H]3C(=O)N3CCN(C)C[C@H]3C(=O)N[C@@H](C)C(=O)N3C[C@H](C)C[C@H]3C(=O)O[C@H]2C)c1 [Compound 69, (S)-2-(3-(3-CHLOROPHENYL)UREIDO)-N-((6AS,8R,12S,13S,15AS,17R,21S,23AS)-8-HYDROXY-2,13,17,21-TETRAMETHYL-6,11,15,20,23-PENTAOXOOCTADECAHYDRO-2H,6H,11H,15H-PYRAZINO[2,1-I]DIPYRROLO[2,1-C:2′,1′-L][1]OXA[4,7,10,13]TETRAAZACYCLOHEXADECIN-12-YL)-3-(M-TOLYL)PROPANAMIDE] ({NH(3-Cl-phenyl)-CO}-[Phe(3-Me)][aThr][Hyp][Piperazine(2S-CO,4-Me)]A[Pro(4R-Me)]; ester 2-C) | 390 ± 800 nM | >20 µM | 5 µM (≈ 4.19 µg/mL) | 5 µM (≈ 4.19 µg/mL) | 5 µM (≈ 4.19 µg/mL) | 2.5 µM (≈ 2.09 µg/mL) | – | – | – | –
